Measured values: patent US8012944B2, “Method for treating cancer using IAP antisense oligomer and chemotherapeutic agent” (Pharmascience Inc., priority 2003, dated 2011)
“Also recorded” adds a separate entry of the source.

Experiments:
XIAP mRNA [1] = assay: XIAP mRNA knock-down in H460 cells (real-time RT-PCR / TaqMan); assay type: cell-based, human; details: 2 × 2 MBO; NCI-H460 cells, 9 hours post-transfection; relative level (mock control 1.01)
[2] = system: MDA-MB-435/LCC6 human breast carcinoma xenografts; assay: Systemic (i.p.) PS-oligonucleotides in LCC6 breast carcinoma xenografts; assay type: in vivo, female SCID-RAG2 mice; details: 12.5 mg/kg i.p.; day 35, two weeks after the last treatment
Procedure: Initial systemic PS-oligonucleotide studies were designed without any chemotherapeutic agents. SCID-RAG2 mice were inoculated with H460 human lung carcinoma cells (s.c. shoulder injection of 10^6 cells) and treatments with G4 and F3 AS PS-oligonucleotides, as well as a scrambled control, were initiated three days after tumor inoculation. Nucleobase oligomer injections were administered i.p. at 12.5 mg/kg three times a week for three weeks. At the end of the treatment period, mean tumor sizes in the groups treated with either G4 or F3 AS oligonucleotides were ˜50% smaller than in the group treated with a scrambled control oligonucleotides (FIG. 15). The same treatment protocol was tested on female SCID-RAG2 mice inoculated orthotopically with MDA-MB-435/LCC6 human breast carcinoma cells. Two weeks after the last treatment (day 35) tumor volumes of mice treated with F3, C5 or G4 AS oligonucleotides were 70%, 60%, and 45%, respectively, smaller than vehicle controls (FIG. 16).
Efficacy experiments were conducted in male RAG2 immunodeficient mice bearing NCI-H460 tumours or female RAG2 mice bearing LCC6 tumors. Treatments were commenced on day 3 after tumor inoculation. Saline (controls), G4 AS oligonucleotides (5 or 15 mg/kg), or G4 SC oligonucleotides (5 or 15 mg/kg) were administered i.p. daily for five doses a week over a three week regimen. Vinorelbine (VNB, 5 or 10 mg/kg) was administered i.v. via the tail vein, either alone or in combination with oligonucleotides, at day 3, 7, 11 and 17 after tumor inoculation. When oligonucleotides were administered in combination with VNB, the drug treatment was performed four hours after ODN treatment.

XIAP mRNA [3] = assay: XIAP mRNA knock-down in H460 cells (real-time RT-PCR / TaqMan); assay type: cell-based, human; details: real-time PCR, 1.2 μM, 6 hours of transfection (FIG. 6)
Procedure, shortened: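 NCI-H460 cells transfected with phosphorothioate antisense oligonucleotides via Lipofectamine 2000; RNA isolated after 6 h treatment. XIAP mRNA quantified by one-step TaqMan real-time RT-PCR, comparative Ct (threshold 30× baseline SD), normalized to GAPDH and expressed relative to untreated control cells.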

H460 cells [4] = assay: Nuclear morphology (DAPI staining); assay type: cell-based, human; details: 1.2 μM
Procedure: Cells were treated with liposome-oligonucleotde complexes for 4.5 h, and incubated for another 48 h at 37° C. in the medium without transfection reagent or oligonucleotides. Cells were harvested and stained with 0.10 μg/ml DAP1 (4′, 6-diamidino-2-2-phenylindole) for 30 min at room temperature. Cells were placed on a glass slide, cytospun, and viewed with a Leica microscope and 40× objective lens under UV fluorescent illumination. Digital images were captured using Imagedatabase V. 4.01 Software (Leica, Germany).

H460 cells [5] = assay: Apoptotic flow cytometric assay (PI staining, hypo-diploid DNA content); assay type: cell-based, human; details: 1.2 μM, untreated control 16.6%
Procedure: Cells were treated with liposome-oligonucleotide complexes for 4.5 h, and incubated for another 48 h in the medium without transfection reagent at 37° C. Following incubation, cells were harvested, washed twice with sample buffer (0.5% glucose in PBS without Ca^++ and Mg^++), and fixed in cold 70% ethanol at 4° C. for at least 18 hrs. Samples were centrifuged at 3000 rpm for 10 min, then resuspended in sample buffer containing 50 μg/ml propidium iodide (PI) and 400 U/ml RNase A. Samples were incubated for 30 min at room temperature and 30 min on ice, followed by flow cytometry analysis. EXPO Software (Applied Cytometry Systems, Sacramento, Calif.) was used to generate histograms, which were used to determine the cell cycle phase distribution after debris exclusion. The Sub G1/G0 cell fraction was considered as representative for apoptotic cells.

GCTGAGTCTCCATATTGCC [G4 AS] (chemistry not given here)
XIAP RNA (XIAP mRNA [1]): 0.48
tumor volumes smaller than vehicle controls [2]: 45%
reduction of XIAP mRNA level compared to untreated control (XIAP mRNA [3]): 55%
nuclear morphological changes characteristic of apoptosis (H460 cells [4]): underwent morphological changes characteristic of apoptosis; also recorded: significant nuclear DNA condensation and fragmentation
hypo-diploid DNA content of cells (H460 cells [5]): 40.8%
